Test results: the supplement of paper PMC4862054

Legend:
Conditions in all cases: incubation time: 72 h
BT-474 [1] = assay: drug sensitivity score (DSS), CellTiter-Blue viability (DSS (AUC-based score)); higher = stronger viability inhibition; extreme values may be limits of the assay
Summary of the method: (§1)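 Breast cancer cell lines in 20 µl suspension were seeded into 384-well plates already holding compound in a 5- or 9-concentration series and incubated for 72 h. CellTiter-Blue reagent (2.5 µl per well) was then added for 2 h at 37 °C, and fluorescence was read at 560/590 nm. Values on each plate were normalised to 0.1 % DMSO and a positive kill control. The drug sensitivity score is the area under the fitted dose-response curve.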

BT-549 [2] = assay: as above
Summary of the method: as §1

CAL-148 [3] = assay: as above
Summary of the method: as §1

CAL-51 [4] = assay: as above
Summary of the method: as §1

CAL-85-1 = assay: as above
Summary of the method: as §1

DU-4475 = assay: as above
Summary of the method: as §1

HCC1143 = assay: as above
Summary of the method: as §1

HCC1599 = assay: as above
Summary of the method: as §1

HCC1937 = assay: as above
Summary of the method: as §1

HDQ-P1 [5] = assay: as above
Summary of the method: as §1

Hs578T = assay: as above
Summary of the method: as §1

MDA-MB-231 = assay: as above
Summary of the method: as §1

MDA-MB-436 [6] = assay: as above
Summary of the method: as §1

MDA-MB-453 = assay: as above
Summary of the method: as §1

MDA-MB-468 [7] = assay: as above
Summary of the method: as §1

MFM-223 = assay: as above
Summary of the method: as §1

SK-BR-3 = assay: as above
Summary of the method: as §1

BT-474 [8] = assay: drug sensitivity score (DSS), CellTox Green (DSS (AUC-based score)); higher = stronger drug effect (viability inhibition or cytotoxicity); extreme values may be limits of the assay
Summary of the method: (§2)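 The drug sensitivity score was computed from the area under the fitted dose-response curve. Breast cancer cell lines in 20 µl suspension went into 384-well plates holding compound at 5 concentrations (10-fold steps over a 10,000-fold, compound-specific range) for 72 h of incubation. CellTox Green fluorescence (485/520 nm) was read before CellTiter-Glo luminescence, the latter after 10 min at room temperature, and each plate was normalised to 0.1 % DMSO and a positive kill control.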

BT-549 [9] = assay: as above
Summary of the method: as §2

CAL-120 = assay: as above
Summary of the method: as §2

CAL-148 [10] = assay: as above
Summary of the method: as §2

CAL-51 [11] = assay: as above
Summary of the method: as §2

HDQ-P1 [12] = assay: as above
Summary of the method: as §2

MCF-10A = assay: as above
Summary of the method: as §2

MDA-MB-436 [13] = assay: as above
Summary of the method: as §2

MDA-MB-468 [14] = assay: as above
Summary of the method: as §2

Row | SMILES | drug sensitivity score (BT-474 [1]) | drug sensitivity score (BT-549 [2]) | drug sensitivity score (CAL-148 [3]) | drug sensitivity score (CAL-51 [4]) | drug sensitivity score (CAL-85-1) | drug sensitivity score (DU-4475) | drug sensitivity score (HCC1143) | drug sensitivity score (HCC1599) | drug sensitivity score (HCC1937) | drug sensitivity score (HDQ-P1 [5]) | drug sensitivity score (Hs578T) | drug sensitivity score (MDA-MB-231) | drug sensitivity score (MDA-MB-436 [6]) | drug sensitivity score (MDA-MB-453) | drug sensitivity score (MDA-MB-468 [7]) | drug sensitivity score (MFM-223) | drug sensitivity score (SK-BR-3) | drug sensitivity score (BT-474 [8]) | drug sensitivity score (BT-549 [9]) | drug sensitivity score (CAL-120) | drug sensitivity score (CAL-148 [10]) | drug sensitivity score (CAL-51 [11]) | drug sensitivity score (HDQ-P1 [12]) | drug sensitivity score (MCF-10A) | drug sensitivity score (MDA-MB-436 [13]) | drug sensitivity score (MDA-MB-468 [14])
1 | C#Cc1cccc(Nc2ncnc3cc(OC)c(OCCCCCCC(=O)NO)cc23)c1 [CUDC-101] | 14.8 | 8.79 | 12.2 | 4.16 | 15 | 10.6 | 12.4 | 15.3 | 11.3 | 14.7 | 15.6 | 12 | 10.6 | 19.9 | 18 | 15.6 | 18.6 | 6.29 | 0 | 3.78 | 8.84 | 6.83 | 0 | 1.27 | 5.42 | 13
2 | COc1cccc2c1C(=O)c1c(O)c3c(c(O)c1C2=O)C[C@@](O)(C(C)=O)C[C@@H]3O[C@H]1C[C@H](N)[C@H](O)[C@H](C)O1 [Daunorubicin] | 7.7 | 9.47 | 13 | 13.7 | 5.47 | 14 | 10.9 | 1.88 | 14.9 | 5.31 | 9.16 | 13.5 | 10.8 | 3.7 | 11.1 | 2.14 | 13.1 | 0 | 0 | 0 | 0 | 5.74 | 0 | 0 | 1.42 | 4.94
3 | CN1CCN(c2ccc3nc(-c4c(N)c5c(F)cccc5[nH]c4=O)[nH]c3c2)CC1 [Dovitinib] | 0 | 0 | 0 | 0 | 0 | 0 | 0 | 0 | 3.16 | 0 | 0 | 0 | 0 | 0 | 0 | 0 | 0 | 0 | 0 | 0 | 0 | 0 | 0 | 0 | 0 | 0
4 | O=c1[nH]c(=O)n([C@H]2C[C@H](O)[C@@H](CO)O2)cc1F [Floxuridine] | 0 | 6.97 | 18.3 | 21.3 | 14 | 0 | 3.31 | 0.768 | 3.61 | 0 | 9.02 | 8.09 | 10.6 | 4.36 | 17.8 | 0 | 17.9 | 0 | 0 | 0 | 0 | 5.94 | 1.01 | 0 | 0 | 0
5 | C[C@@H]1C=C2C(=O)O[C@@H]3CC[C@H](C1)[C@]23O [Galiellalactone] | 2.65 | 10.4 | 4.5 | 0.94 | 9.4 | 0 | 0 | 0 | 5.76 | 2.82 | 0.961 | 9.39 | 6.26 | 8.97 | 6.59 | 2.28 | 6.66 | 0 | 0 | 0 | 0 | 0 | 0 | 0 | 0 | 0
6 | COC1=C2C[C@@H](C)C[C@H](OC)[C@H](O)[C@@H](C)/C=C(\C)[C@H](OC(N)=O)[C@@H](OC)/C=C\C=C(/C)C(=O)NC(=CC1=O)C2=O [Geldanamycin] | 22.7 | 23.4 | 18.2 | 14.4 | 16.6 | 22.5 | 20.4 | 14.7 | 21.8 | 20.1 | 19.2 | 24.2 | 25 | 23 | 24.1 | 21.8 | 25.2 | 2.54 | 0 | 0 | 0 | 1.35 | 0 | 7.09 | 0 | 25
7 | Cn1cnc2c(F)c(Nc3ccc(Br)cc3F)c(C(=O)NOCCO)cc21 [MEK-162] | 0 | 0 | 0 | 0.246 | 0 | 16 | 7.86 | 2.32 | 0 | 0 | 0 | 4.22 | 0 | 0 | 0 | 0 | 0 | 0 | 0 | 0 | 1.61 | 0 | 1.87 | 0 | 0 | 0
8 | CCOc1cc2ncc(C#N)c(Nc3ccc(OCc4ccccn4)c(Cl)c3)c2cc1NC(=O)/C=C/CN(C)C [Neratinib] | 0 | 0 | 0 | 0 | 0 | 0 | 0 | 0 | 0 | 0 | 0 | 0 | 0 | 4.42 | 0 | 0 | 0 | 4.09 | 0 | 0 | 0.237 | 0 | 0 | 0 | 0 | 9.51
9 | COc1ccc(C2=N[C@@H](c3ccc(Cl)cc3)[C@@H](c3ccc(Cl)cc3)N2C(=O)N2CCNC(=O)C2)c(OC(C)C)c1 [Nutlin-3] | 0 | 0 | 0 | 2.91 | 0 | 3.53 | 0 | 0 | 0 | 0 | 0 | 0 | 0 | 0 | 0 | 0 | 0 | 0 | 0 | 0 | 1.15 | 13.1 | 0 | 0 | 0 | 0
10 | COC1=CC(c2cc3ccccc3[nH]2)=N/C1=C\c1[nH]c(C)cc1C [Obatoclax] | 15.2 | 16.4 | 4.47 | 7.63 | 8.55 | 2.24 | 9.51 | 7.48 | 25.1 | 15.4 | 16.6 | 21 | 13.7 | 13.8 | 16.6 | 7.09 | 20.1 | 0 | 0 | 0 | 0 | 6.54 | 0 | 0 | 0 | 0
11 | COC(=O)C[C@](O)(CCCC(C)(C)O)C(=O)O[C@@H]1C(OC)=C[C@]23CCCN2CCc2cc4c(cc2[C@H]13)OCO4 [Omacetaxine] | 20.5 | 28.3 | 31.6 | 30.7 | 31.8 | 38.1 | 24.5 | 24.8 | 31.8 | 30.7 | 28.8 | 27.8 | 26.7 | 28.2 | 28.5 | 26.3 | 28.3 | 0.916 | 4.27 | 1.24 | 6.49 | 0 | 3.97 | 13.3 | 1.54 | 3.61
12 | CC(=O)O[C@H]1C(=O)[C@@]2(C)[C@H]([C@H](OC(=O)c3ccccc3)[C@]3(O)C[C@H](OC(=O)[C@H](O)[C@@H](NC(=O)c4ccccc4)c4ccccc4)C(C)=C1C3(C)C)[C@]1(OC(C)=O)CO[C@@H]1C[C@@H]2O [Paclitaxel] | 19 | 24.7 | 21.9 | 19.3 | 18.3 | 18.3 | 17.6 | 3.04 | 22.9 | 20.9 | 24.4 | 21.4 | 15.8 | 22.2 | 16.4 | 15 | 26.6 | 12.7 | 9.38 | 2.71 | 7.75 | 22.7 | 0 | 21.4 | 7.09 | 26.9
13 | O=C(c1ccc(OCCN2CCCCC2)cc1)c1c(-c2ccc(O)cc2)sc2cc(O)ccc12 [Raloxifene] | 0 | 0 | 0 | 0 | 0 | 0 | 0 | 0 | 0 | 0 | 0 | 0 | 0 | 1.25 | 0 | 0 | 0 | 0 | 0 | 1.42 | 0 | 0 | 1.26 | 0 | 0 | 0
